Laboratory results taken from patent publication US11459586B2, “Methods for increasing efficiency of nuclease-mediated gene editing in stem cells” (President and Fellows of Harvard College, priority 2016, dated 2022).

Columns and labels:
hiPSC = test: toxicity of chemical inhibitors added to hiPSC culture after nucleofection
Description: Plasmids were purified using the plasmid DNA purification kit sold under the trademark Qiagen ENDOFREE® Plasmid Maxi kit and nucleofected into iPSC cells using the Lonza 4D-Nucleofector X unit (Buffer P3, Program CB-150). For each 20 μl nucleofection reaction, 0.2-0.5×106 iPSC were transfected with up to 4 μg of plasmid DNA. Post-nucleofection, iPSC were plated onto solubilized basement membrane matrix secreted by Engelbreth-Holm-Swarm (EHS) mouse sarcoma cells sold under the trademark […]®-coated wells containing feeder-free cell culture medium sold under the trademark MTESR1™ media with 10 μM Y-27632 plus other chemical inhibitors when noted. Later experiments included 50 μM zVAD-fmk (Bachem) for 1 day and 10 μM SB203580 (Biovision) for 4-5 days post transfection (see FIGS. 5, 6, 11, and 12). For FIG. 6 (ssODN transfection), 200 ng/ml recombinant B 18R (eBioscience), was also added to the culture for 5 days post transfection.
The following inhibitors were added to the hiPSC culture at the concentrations and time periods indicated in the Examples below. • 1. p53 or Bax inhibitors: cyclic pifithrin α (StemCell Technologies); pifithrin (Tocris); peptide V5, peptide control, iMAC1 and iMAC2 (EMD Millipore); N-acetyl cysteine and 4-hydroxy TEMPO (TEMPOL) (Sigma). • 2. […]

human iPSC [1] = test: mThy1 gene targeting in hiPSC co-transfected with DNA repair or viral inhibitor genes; type: cell-based; conditions: 0.5 μg plasmid overexpressing the DNA repair gene; 50 μM zVAD and 10 μM SB203580 post transfection (FIG. 9E)
Description: FIGS. 9A-G. Effects of chemical and genetic inhibitors on mThy1 gene targeting in hiPSC. FIG. 9A. Mouse Thy1 gene targeting scheme. Human iPSC were nucleofected with the mThy1 targeting vector system plasmids and analyzed by flow cytometry five days later. The percentages of mThy1^+hThy1^−, mThy1^+hThy1^+, and mThy1^−hThy1^− cells for each sample (gated on live single cells) are graphed. Lines mark the percentage values for the control sample. FIGS. 9B-9D. Human iPSC were nucleofected with: 2 μg mThy1 targeting vector; 0.5 μg Cas9 plasmid; and 1.5 μg of sgRNA plasmids. The sample was divided into multiple wells and cultured in plain media (mTeSR1+10 μM Y-27632 ROCK inhibitor) supplemented with the indicated chemical inhibitor for three days. 20 μM pifithrin α, 200 μM peptide V5 (VPMLK, SEQ ID NO:31), 200 μM peptide control (IPMIK, SEQ ID NO:32), 50 μM TEMPOL, or the indicated concentrations of SCR7 or L755507 were used. FIG. 9B, mThy1^+hThy1^− (bottom portion of each bar in each graph), mThy1^+hThy1^+ (top portion of each bar in each graph). FIG. 9C, mThy1^+hThy1^− (bottom portion of each bar in each graph), mThy1^+hThy1^+ (top portion of each bar in left and center graphs, middle portion of each bar in right graph), and mThy1^−hThy1^− (top portion of each bar in right graph). […]

human iPSC [2] = test: gene targeting (mThy1, mCD147) in hiPSC transiently transfected with Cas9-IRES-anti-apoptotic gene plasmids; type: cell-based; conditions: Cas9 Bcl-2 sgRNA plasmids, transient transfection
Description: FIGS. 4A-D. Bcl-2 overexpression increases HR-mediated gene targeting in human iPSC when transiently transfected with the Cas9 nuclease. FIG. 4A. Mouse Thy1 gene targeting scheme. FIG. 4B. Plasmids were constructed to constitutively express Cas9 together with an anti-apoptotic gene (separated by an IRES) under the constitutively active EF1α promoter. Plain human iPSC were nucleofected with 0.5 μg of one of these Cas9 plasmids together with 2 μg of the mThy1 targeting vector and 1.5 μg of plasmids expressing the Thy1 Left, Right, both, or no sgRNAs (pUC19). Five days later, cells were analyzed by flow cytometry. FIG. 4C. Flow cytometry staining for mThy1 and hThy1 for the Cas9 only sample gated on live single cells; the percent of cells in each quadrant is indicated. […] FIG. 4D. Compiled gene editing frequencies. The percent of mThy1^+hThy1^− (bottom portion of each bar in the left, center, and right grafts), mThy1^+hThy1^+ (top portion of bars in the left and center graphs), and mThy1^−hThy1^− (top portion of bars in the right graph) cells is graphed for each indicated sample. Lines mark the percentages for the Cas9 only sample. Results are representative of two independent experiments.
FIGS. 8A-F. Wild type Bcl-2 improves gene targeting at various genomic loci across multiple hiPSC lines. FIG. 8A. Plasmids were constructed to constitutively express the Cas9 nuclease with a form of Bcl-2 (separated by an IRES), and a sgRNA. Three human iPSC lines were nucleofected with 2 μg of mThy1 or mCD147 targeting vector and 2 μg of “Cas9 sgRNA” or “Cas9 Bcl-2 sgRNA” expression plasmid. 5-9 days later, cells were analyzed by flow cytometry. FIG. 8B. Mouse Thy1 gene targeting scheme. FIG. 8C. Single amino acid mutations were generated for the Bcl-2 BH1 (G145A) or BH4 (Y28A) domains. Compiled gene editing frequencies for cells transfected with the Left, Right, or Both Thy1 sgRNAs. The percent of mThy1^+hThy1^− (bottom portion of each set of bars in each graph), mThy1^+hThy1^+ (top portion of left and center sets of bars in each graph and center portion of right set of bars in each graph), and mThy1^−hThy1^− (top portion of right set of bars in each graph) cells among the various samples is indicated. FIG. 8D. Mouse CD147 gene targeting scheme. FIG. 8E. Flow cytometry staining for mCD147 and hCD147 for retrovirally-derived PGP1 hiPSC transfected with “Cas9 sgRNA” or “Cas9 Bcl-2 sgRNA”. Samples are gated on live single cells; the percent of cells in each quadrant is indicated. FIG. 8F. Compiled gene editing frequencies for cells transfected with the Left, Right, or both CD147 sgRNAs. The percent of mCD147^+hCD147^− (bottom portion of each set of bars in each graph), mCD147^+hCD147^+ (top portion of left and center sets of bars in each graph and center portion of right set of bars in each graph), and mCD147^−hCD147^− (top portion of right set of bars in each graph) cells among the three hiPSC lines is indicated.
PCR reactions were done using polymerase sold under the trademark KAPA HIFI™ HotStart polymerase; primers and double-stranded DNA fragments sold under the trademark GBLOCKS® are from IDT. Plasmids were constructed using isothermal assembly, transformed into Stbl3 competent E. coli (Invitrogen), grown at 30° C., and verified by Sanger sequencing (Genewiz). Anti-apoptotic genes were obtained from previously published plasmids: Bcl-2 (Addgene plasmid #8793) and Bcl-xL (#8790) (Cheng et al., 2001); Bcl2A1 (#36973) (Pratt et al., 2012); and Mcl-1 (#21605) (Maurer et al., 2006). The dominant negative p53 sequence from Addgene plasmid #9058 (Hahn et al., 2002) was synthesized as a gBlock. These genes were cloned into the EF1α promoter-Cas9 nuclease plasmid after an IRES.
The U6 promoter-sgRNA (for each sgRNA sequence) was cloned into the EF1α promoter-Cas9 nuclease or EF1α promoter-Cas9 nuclease-IRES-Bcl-2 expression plasmids to form the “Cas9 only sgRNA” or “Cas9 Bcl-2 sgRNA” plasmids used in Examples 6 and 7. […]

Compound	mThy1 gene targeting efficiency (human iPSC [1])	mThy1 gene targeting, wild type vs mutant Bcl-2 (human iPSC [2])	other results
C[C@H]1CCC/C=C/[C@@H]2C[C@H](O)C[C@H]2[C@H](O)/C=C/C(=O)O1 [Brefeldin A]			toxicity to hiPSC (hiPSC; PGP1 hiPSC, 0.1 μM, data not shown): toxic
CC(=O)N[C@@H](CS)C(=O)O [N-acetyl cysteine]			toxicity to hiPSC (hiPSC; 1-5 mM): toxicity
BRCA1: principal HR mediator, overexpressed from plasmid	did not improve mThy1 gene targeting efficiency		
BRCA2: principal HR mediator, overexpressed from plasmid	did not improve mThy1 gene targeting efficiency		
G145A: Bcl-2 with G145A mutation in the BH1 domain, prevents interaction with Bax		intermediate levels of gene targeting	
Y28A: Bcl-2 with Y28A mutation in the BH4 domain		intermediate levels of gene targeting	
